The subject of series [1] is SKOV-3 cells. The series is described as follows: In vitro cytotoxicity of the peptide derivative (I), MTS method, SKOV-3 cells. In kind it is cell-based, human. The text has this:
(§1) The cytotoxicity of the peptide derivative (I) or a pharmaceutically acceptable salt thereof, or the conjugate including the peptide derivative (I) or a pharmaceutically acceptable salt thereof can be evaluated with an in vitro study. Examples of the in vitro studies include the trypan blue dye exclusion method, the lactate dehydrogenase (LDH) activity assay, [^3H]thymidine incorporation method, or propidium iodide nuclear stain that each measures the number of dead cells or surviving cells post treated with the compound; a method using dyes such as MTT, MTS, and WST (Current Protocol in Toxicology, (2000), 2.6.1-2.6.27); or a method in which the amount of ATP is measured using CellTiter-Glow (Promega Corporation) and the like, and preferably include the method in which the number of surviving cells post treated with the compound is measured by using the MTS method to determine values of the cytotoxicity at that time from 50% effect-concentration (EC50). Furthermore, in the evaluation of the cytotoxicity of the conjugate including the peptide derivative (I) or a pharmaceutically acceptable salt thereof, preferred method is the one that for a certain time, cells are treated with a medium containing the compound, the cells are then transferred to a medium not containing the compound, and the number of surviving cells are measured after cultivation for additional certain time (Bioconjugate Chemistry., 2014; 25: pp. 560-568). For the in vitro studies, human ovarian cancer cell SKOV-3 cells, human alveolar basement epithelial gland cancer cell A549 cells, mouse lymphocytic leukocyte L1210 cells and the like are used.
In general terms: Tetrazolium dyes change colour on reduction, which living cells bring about.

For series [2], the system named is L1210 cells. The series can be described thus: In vitro cytotoxicity of the peptide derivative (I), MTS method, L1210 cells. The class given is cell-based, mouse.
Text: as §1

A short description of series [3]: Parallel Artificial Membrane Permeation Assay (PAMPA), Pre-coated PAMPA Plate System (Corning). As for the experimental part:
Reference Example 14, the Compound of Reference Example 16, and the Compound of Comparative Example was Evaluated by Using Pre-Coated PAMPA PlateSystem (Corning)
A frozen-stored, Pre-coated PAMPA Plate System was allowed to stand at room temperature for thirty minutes or more. Subsequently, 320 μL of the standard solution was added to a Donor side plate of Pre-coated PAMPA Plate System, and 200 μL of the PBS containing 20% of methanol was added to an Acceptor side plate. Both of the plates were set for the system, and the plates allowed to stand at room temperature for five hours. The reaction liquid in each well of the Donor side and Acceptor side plates was subjected to LC/MS analysis (hereinafter, LC/MS-3), and the concentration of the compounds in each well calculated.
Using the obtained concentration of the compounds in the reaction liquid in each well, the membrane permeability coefficients (Pe) (cm/s) were calculated by the following formula: Cequilibrium=[…] Pe=[−ln(1−CA/Cequilibrium)]/S×(1/VD+1/VA)×t Cequilibrium: Equilibrium concentration of the wells in the Donor side and Acceptor side plates CD: Concentration after five hours of the wells in the Donor side plate (mmol/L) VD: Volume of the standard solution added to the wells in the Donor side plate (0.32 mL) CA: Concentration after five hours of the wells in the Acceptor side plate (mmol/L) VA: Volume of the PBS containing 20% of methanol added to the wells in the Acceptor side plate (0.2 mL) S: Surface of the membrane (0.3 cm^2) t: Standing time 18,000 s (=5 hrs).

The subject of series [4] is A549 cells. The series can be described thus: In vitro cytotoxicity of the peptide derivative (I), MTS method, A549 cells. In kind it is cell-based, human.
Text: as §1

Structures are written as SMILES. Counter-ions that a name gives are not always drawn. Like-named read-outs stand apart in the source and are kept apart here. Where only a bound is given, the exact number is not on record here.

One may read the EC50 as the concentration giving half of the maximal effect. Low readings indicate a more potent agent, high ones a less potent agent. With `CCNC(=O)c1csc([C@H](Cc2ccccc2)NC(=O)[C@@H](C)[C@@H](OC)[C@@H]2CCCN2C(=O)C[C@@H](OC)[C@H]([C@@H](C)CC)N(C)C(=O)[C@@H](NC(=O)[C@H](C(C)C)N(C)C)C(C)C)n1` [Comparative Example, reference compound], the figures for the EC50 in series [1], in series [2] and in series [4] were 0.55 nM, 6.51 nM and 0.74 nM, respectively. The “Membrane Permeability Coefficient” value in series [3] (200 μmol/L in PBS containing 20% of methanol, room temperature, five hours, N.D. = Acceptor side concentration less than lower limit of determinate quantity) is reported as 1.68 10^−6 cm/s.

Broadly, the Papp is the rate of passage across a membrane or cell layer, normalised by area and donor concentration. With `CC[C@H](C)[C@@H]([C@@H](CC(=O)N1CCC[C@H]1[C@H](OC)[C@@H](C)C(=O)N[C@@H](Cc1ccccc1)c1nc(C(=O)NCCS)cs1)OC)N(C)C(=O)[C@@H](NC(=O)[C@H](C(C)C)N(C)C)C(C)C` [Example 1], the EC50 is 0.44 nM in series [1] (Homo sapiens, SK-OV-3); 31.4 nM in series [2] (Mus musculus); 1.93 nM in series [4] (Homo sapiens). In addition, the Papp at 5 h, 200 μmol/L in series [3] is 1.15 ×10⁻⁶ cm/s.

Regarding `CC[C@H](C)[C@@H]([C@@H](CC(=O)N1CCC[C@H]1[C@H](OC)[C@@H](C)C(=O)N[C@@H](Cc1ccccc1)c1nc(C(=O)OCCS)cs1)OC)N(C)C(=O)[C@@H](NC(=O)[C@H](C(C)C)N(C)C)C(C)C` [Example 2, 2-mercaptoethyl 2-((S)-1-((2R,3R)-3-((S)-1-((3R,4S,5S)-4-((S)-2-((S)-2-(dimethylamino)-3-methylbutanamido)-N,3-dimethylbutanamido)-3-methoxy-5-methylheptanoyl)pyrrolidin-2-yl)-3-methoxy-2-methylpropanamido)-2-phenylethyl)thiazole-4-carboxylate], the EC50 in series [1] (Homo sapiens, SK-OV-3) stood at 0.13 nM; in series [2] (Mus musculus), 14.2 nM; in series [4] (Homo sapiens), 6.88 nM. In series [3], the Papp at 5 h, 200 μmol/L came out at 0.005 ×10⁻⁶ cm/s.

Consider `CC[C@H](C)[C@@H]([C@@H](CC(=O)N1CCC[C@H]1[C@H](OC)[C@@H](C)C(=O)N[C@@H](Cc1ccccc1)c1nc(C(=O)N(C)CCS)cs1)OC)N(C)C(=O)[C@@H](NC(=O)[C@H](C(C)C)N(C)C)C(C)C` [Example 3], for which the 50% effective concentration (EC50) in series [1] (Homo sapiens, SK-OV-3) worked out at 1.05 nM; in series [2] (Mus musculus), 6.96 nM; in series [4] (Homo sapiens), 1.22 nM. The same compound had an apparent permeability (Papp) at 5 h, 200 μmol/L in series [3] of 1.14 ×10⁻⁶ cm/s.

With `CC[C@H](C)[C@@H]([C@@H](CC(=O)N1CCC[C@H]1[C@H](OC)[C@@H](C)C(=O)N[C@@H](Cc1ccccc1)c1nc(C(=O)OCCN)cs1)OC)N(C)C(=O)[C@@H](NC(=O)[C@H](C(C)C)N(C)C)C(C)C` [Example 4], the EC50 worked out at 0.85 nM in series [1] (Homo sapiens, SK-OV-3); 28.7 nM in series [2] (Mus musculus); 0.83 nM in series [4] (Homo sapiens). The same compound registered a Papp at 5 h, 200 μmol/L in series [3] of 0.01 ×10⁻⁶ cm/s.

Regarding `CC[C@H](C)[C@@H]([C@@H](CC(=O)N1CCC[C@H]1[C@H](OC)[C@@H](C)C(=O)N[C@@H](Cc1ccccc1)c1nc(C(=O)N(C)CCN)cs1)OC)N(C)C(=O)[C@@H](NC(=O)[C@H](C(C)C)N(C)C)C(C)C` [Example 5, N-(2-aminoethyl)-2-((S)-1-((2R,3R)-3-((S)-1-((3R,4S,5S)-4-((S)-2-((S)-2-(dimethylamino)-3-methylbutanamido)-N,3-dimethylbutanamido)-3-methoxy-5-methylheptanoyl)pyrrolidin-2-yl)-3-methoxy-2-methylpropanamido)-2-phenylethyl)-N-methylthiazole-4-carboxamide dihydro chloride], the concentration giving a half-maximal response (EC50) in series [1] (Homo sapiens, SK-OV-3) worked out at 0.56 nM; in series [2] (Mus musculus) it was 11.7 nM; in series [4] (Homo sapiens), 0.81 nM. The same compound returned a Papp at 5 h, 200 μmol/L in series [3] of 0.01 ×10⁻⁶ cm/s.

Turning to `CC[C@H](C)[C@@H]([C@@H](CC(=O)N1CCC[C@H]1[C@H](OC)[C@@H](C)C(=O)N[C@@H](Cc1ccccc1)c1nc(C(=O)N(C)CCNC)cs1)OC)N(C)C(=O)[C@@H](NC(=O)[C@H](C(C)C)N(C)C)C(C)C` [Example 6, 2-((S)-1-((2R,3R)-3-((S)-1-((3R,4S,5S)-4-((S)-2-((S)-2-(dimethylamino)-3-methylbutanamido)-N,3-dimethylbutanamido)-3-methoxy-5-methylheptanoyl)pyrrolidin-2-yl)-3-methoxy-2-methylpropanamido)-2-phenylethyl)-N-methyl-N-(2-(methylamine)ethyl)thiazole-4-carboxamide dihydrochloride], the concentration giving a half-maximal response (EC50) worked out at 0.22 nM in series [1] (Homo sapiens, SK-OV-3); 17.2 nM in series [2] (Mus musculus); 1.94 nM in series [4] (Homo sapiens).

For the compound `CC[C@H](C)[C@@H]([C@@H](CC(=O)N1CCC[C@H]1[C@H](OC)[C@@H](C)C(=O)N[C@@H](Cc1ccccc1)c1nc(C(=O)NCCO)cs1)OC)N(C)C(=O)[C@@H](NC(=O)[C@H](C(C)C)N(C)C)C(C)C` [Example 7], the concentration giving a half-maximal response (EC50) was found to be 4.67 nM in series [1] (Homo sapiens, SK-OV-3); 28.4 nM in series [2] (Mus musculus); 1.74 nM in series [4] (Homo sapiens). In series [3], this compound came in with a Papp at 5 h, 200 μmol/L of 0.02 ×10⁻⁶ cm/s.

On to `CC[C@H](C)[C@@H]([C@@H](CC(=O)N1CCC[C@H]1[C@H](OC)[C@@H](C)C(=O)N[C@@H](Cc1ccccc1)c1nc(C(=O)OCCO)cs1)OC)N(C)C(=O)[C@@H](NC(=O)[C@H](C(C)C)N(C)C)C(C)C` [Example 8, 2-hydroxyethyl 2-((S)-1-((2R,3R)-3-((S)-1-((3R,4S,5S)-4-((S)-2-((S)-2-(dimethylamino)-3-methylbutanamido)-N,3-dimethylbutanamido)-3-methoxy-5-methylheptanoyl)pyrrolidin-2-yl)-3-methoxy-2-methylpropanamido)-2-phenylethyl)thiazole-4-carboxylate], for which the EC50 in series [1] (Homo sapiens, SK-OV-3) came to 0.09 nM; in series [2] (Mus musculus), 4.74 nM; in series [4] (Homo sapiens) it was 1.75 nM. For the same compound, in series [3], the apparent permeability (Papp) at 5 h, 200 μmol/L came to 0.04 ×10⁻⁶ cm/s.

In the case of `CC[C@H](C)[C@@H]([C@@H](CC(=O)N1CCC[C@H]1[C@H](OC)[C@@H](C)C(=O)N[C@@H](Cc1ccccc1)c1nc(C(=O)N(C)CCO)cs1)OC)N(C)C(=O)[C@@H](NC(=O)[C@H](C(C)C)N(C)C)C(C)C` [Example 9], the half-maximal effective concentration (EC50) in series [1] (Homo sapiens, SK-OV-3) came to 1.5 nM; in series [2] (Mus musculus), 8.52 nM; in series [4] (Homo sapiens) it was 1.64 nM. This compound registered a Papp at 5 h, 200 μmol/L in series [3] of 0.08 ×10⁻⁶ cm/s.

As to `CC[C@H](C)[C@@H]([C@@H](CC(=O)N1CCC[C@H]1[C@H](OC)[C@@H](C)C(=O)N[C@@H](Cc1ccccc1)c1nc(C(=O)NCCc2ccc(N)cc2)cs1)OC)N(C)C(=O)[C@@H](NC(=O)[C@H](C(C)C)N(C)C)C(C)C` [Example 10], the EC50 in series [1] (Homo sapiens, SK-OV-3) was 0.27 nM; in series [2] (Mus musculus), 4.05 nM; in series [4] (Homo sapiens) it was 1.08 nM. Besides, the apparent permeability coefficient (Papp) at 5 h, 200 μmol/L in series [3] is 0.3 ×10⁻⁶ cm/s.

On to `CC[C@H](C)[C@@H]([C@@H](CC(=O)N1CCC[C@H]1[C@H](OC)[C@@H](C)C(=O)N[C@@H](Cc1ccccc1)c1nc(C(=O)NCCc2ccc(O)cc2)cs1)OC)N(C)C(=O)[C@@H](NC(=O)[C@H](C(C)C)N(C)C)C(C)C` [Example 11, 2-((S)-1-((2R,3R)-3-((S)-1-((3R,4S,5S)-4-((S)-2-((S)-2-(dimethylamino)-3-methylbutanamido)-N,3-dimethylbutanamido)-3-methoxy-5-methylheptanoyl)pyrrolidin-2-yl)-3-methoxy-2-methylpropanamido)-2-phenylethyl)-N-(4-hydroxyphenethyl)thiazole-4-carboxamide], for which the EC50 in series [1] (Homo sapiens, SK-OV-3) came to 0.37 nM; in series [2] (Mus musculus), 5.61 nM; in series [4] (Homo sapiens), 1.31 nM. In series [3], this compound returned a Papp at 5 h, 200 μmol/L of 0.36 ×10⁻⁶ cm/s.

For `CC[C@H](C)[C@@H]([C@@H](CC(=O)N1CCC[C@H]1[C@H](OC)[C@@H](C)C(=O)N[C@@H](Cc1ccccc1)c1nc(C(=O)NCCNC(=O)CCS)cs1)OC)N(C)C(=O)[C@@H](NC(=O)[C@H](C(C)C)N(C)C)C(C)C` [Reference Example 16, reference compound], the EC50 in series [1] (Homo sapiens, SK-OV-3) was more than 10 nM; in series [2] (Mus musculus), more than 50 nM; in series [4] (Homo sapiens) it was more than 10 nM.

The values are drawn from patent US10792365B2, “Peptide derivative and use thereof” (Toray Industries, Inc., priority 2016, dated 2020).
